Assay results from ChEMBL document CHEMBL1811762, “Gusanlungionosides A-D, potential tyrosinase inhibitors from Arcangelisia gusanlung” (J Nat Prod, 2011).
Activity calls are given as the source filed them. The rule behind the calls is not given here.

Key:
[1] = biological target: T1, Tyrosinase (Agaricus bisporus, UniProt O42713)
T1 sequence (O42713 whole entry): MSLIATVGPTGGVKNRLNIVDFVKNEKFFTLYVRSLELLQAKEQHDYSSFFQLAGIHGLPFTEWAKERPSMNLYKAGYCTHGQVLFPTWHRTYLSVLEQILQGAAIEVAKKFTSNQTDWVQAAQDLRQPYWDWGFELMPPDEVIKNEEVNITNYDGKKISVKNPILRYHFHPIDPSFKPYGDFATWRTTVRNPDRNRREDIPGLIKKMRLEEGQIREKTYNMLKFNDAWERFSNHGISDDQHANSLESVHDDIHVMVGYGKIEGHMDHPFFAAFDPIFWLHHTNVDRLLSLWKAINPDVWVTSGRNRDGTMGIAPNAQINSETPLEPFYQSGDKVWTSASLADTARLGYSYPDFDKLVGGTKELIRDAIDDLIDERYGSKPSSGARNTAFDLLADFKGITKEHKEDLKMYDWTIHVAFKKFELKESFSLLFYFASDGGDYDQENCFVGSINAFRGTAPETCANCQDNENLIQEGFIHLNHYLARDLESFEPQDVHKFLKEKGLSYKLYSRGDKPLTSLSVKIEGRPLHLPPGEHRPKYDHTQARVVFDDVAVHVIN
Description: Inhibition of mushroom tyrosinase using L-DOPA after 10 mins by ELISA reader

[2] = system: B16-F10; experiment: Decrease in tyrosinase mRNA expression in alpha-MSH-stimulated mouse B16F10 cells after 48 hrs by RT-PCR analysis; type: functional, cell-based
[3] = system: B16-F10; experiment: Cytotoxicity against mouse B16F10 cells up to 200 ug/mL; type: cell-based
[4] = system: B16-F10; experiment: Antimelanogenic activity in alpha-MSH-stimulated mouse B16F10 cells pretreated for 30 mins before alpha-MSH challenge measured after 48 hrs by ELISA reader; type: functional, cell-based

Compound | IC50 [1] [mM] | Activity [2] | Activity [3] | Activity [4]
CC1=CC(=O)CC(C)(C)[C@H]1/C=C/[C@@H](C)O[C@@H]1O[C@H](CO)[C@@H](O)[C@H](O)[C@H]1O[C@@H]1O[C@@H](C)[C@H](O)[C@@H](O)[C@H]1O [GUSANLUNGIONOSIDE B] | 0.16 | Active | Non-toxic | Active
OCc1ccc(O)cc1 [PARAHYDROXYBENZYL ALCOHOL] | > 1 | – | Non-toxic | Active
CC1=CC(=O)CC(C)(C)[C@@H]1/C=C/[C@@H](C)O[C@@H]1O[C@H](CO)[C@@H](O)[C@H](O)[C@H]1O[C@@H]1O[C@@H](C)[C@H](O)[C@@H](O)[C@H]1O [GUSANLUNGIONOSIDE A] | 0.15 | Active | Non-toxic | Active
CC1=CC(=O)CC(C)(C)[C@@H]1CC[C@@H](C)O[C@@H]1O[C@H](CO)[C@@H](O)[C@H](O)[C@H]1O[C@@H]1O[C@@H](C)[C@H](O)[C@@H](O)[C@H]1O [GUSANLUNGIONOSIDE C] | 0.2 | Active | Non-toxic | Active
COc1cc([C@@H]2c3c(cc(OC)c(O)c3OC)C[C@H](CO)[C@@H]2CO[C@@H]2O[C@H](CO)[C@@H](O)[C@H](O)[C@H]2O)cc(OC)c1O | > 1 | – | Non-toxic | Active
COc1cc([C@H]2c3c(cc(OC)c(O)c3OC)C[C@@H](CO)[C@H]2CO[C@@H]2O[C@H](CO)[C@@H](O)[C@H](O)[C@H]2O)cc(OC)c1O | > 1 | – | Non-toxic | Active
COc1cc2c(cc1OC)C(=O)N(C)CC2 | > 1 | – | Non-toxic | Active
COc1cc(/C=C/C(=O)NCCc2ccc(O)c(OC)c2)ccc1O | > 1 | – | Non-toxic | Active

Second part, led by results:

IC50 [1] [mM] | Compound | Activity [2] | Activity [3] | Activity [4]
> 1 | COc1cc([C@@H]2c3c(cc(OC)c(O)c3OC)C[C@@H](CO)[C@H]2CO[C@@H]2O[C@H](CO)[C@@H](O)[C@H](O)[C@H]2O)cc(OC)c1O | – | Non-toxic | Active
0.19 | CC1=CC(=O)CC(C)(C)[C@H]1CC[C@@H](C)O[C@@H]1O[C@H](CO)[C@@H](O)[C@H](O)[C@H]1O[C@@H]1O[C@@H](C)[C@H](O)[C@@H](O)[C@H]1O [GUSANLUNGIONOSIDE D] | Active | Non-toxic | Active
> 1 | O=C(/C=C/c1ccc(O)cc1)NCCc1ccc(O)cc1 [N-P-COUMAROYL TYRAMINE] | – | Non-toxic | Active
> 1 | COc1cc([C@H]2c3c(cc(OC)c(O)c3OC)C[C@H](CO)[C@@H]2CO[C@@H]2O[C@H](CO)[C@@H](O)[C@H](O)[C@H]2O)cc(OC)c1O | – | Non-toxic | Active
> 1 | COc1cc([C@H]2OC[C@H]3[C@@H]2CO[C@@H]3c2cc(OC)c(O)c(OC)c2)cc(OC)c1O [SYRINGARESINOL] | – | Non-toxic | Active
> 1 | COc1cc2c(cc1O)C(=O)N(C)CC2 [THALIFOLINE] | – | Non-toxic | Active
